From PubChem BioAssay (NCI) come the findings set out here.

Common to all, as to test: DTP human tumour cell line panel, 48 h
The subject of experiment [1] is A498 renal.
For experiment [2], the system named is BT-549 breast.
Experiment [3] deals with CCRF-CEM leukemia.
The subject of experiment [4] is HOP-62 NSCLC.
Experiment [5] concerns HS 578T breast.
Experiment [6] has as its system NCI/ADR-RES ovarian.
In experiment [7] the test system is RXF 393 renal.
Experiment [8] deals with SF-268 CNS.
The test system of experiment [9] is SK-MEL-5 melanoma.
The test system of experiment [10] is SK-OV-3 ovarian.

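Interpolation was linear, between the two tested concentrations surrounding the appropriate level; five concentrations were tested over 48 hours in 96-well plates. GI50: concentration for 50% inhibition of growth. TGI is the concentration that stops growth completely.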 Bounds are passed on as bounds.

Consider `Nc1ccc(-c2nc3cc(F)ccc3s2)cc1`, for which the TGI was more than 100 µM in experiment [1]; more than 100 µM in experiment [2]; more than 100 µM in experiment [3]; 39.2 µM in experiment [4]; more than 100 µM in [5]; more than 100 µM in experiment [6]. Moreover, the TGI in experiment [7], in [8], in experiment [9] and in [10] was more than 100 µM throughout.
In the case of `COc1cc([C@@H]2c3cc4c(cc3[C@@H](Nc3ccc(NC(=O)c5cc(NC(=O)c6cc([N+](=O)[O-])cn6C)cn5C)cc3)[C@H]3COC(=O)[C@H]23)OCO4)cc(OC)c1O`, the TGI in experiment [1] is more than 52.9 µM; in experiment [2] it was more than 100 µM; in [3], more than 37.8 µM; in experiment [4], 14.4 µM; in experiment [5], more than 100 µM; in experiment [6], more than 100 µM. For the same compound, the total growth inhibition concentration (TGI) in experiment [7] is more than 62.3 µM; in experiment [8] it was more than 79.7 µM; in experiment [9], more than 33.5 µM; in [10], more than 55.7 µM.
With `O=C1C(CN2CCCC2)CCCC1CN1CCCC1` (stereo not given), the TGI was 38.7 µM in experiment [1]; 3.62 µM in experiment [2]; 0.231 µM in experiment [3]; more than 71.1 µM in experiment [4]; 72.6 µM in [5]; 18.9 µM in [6]. Also, the TGI in [7] was determined as 8.08 µM; in experiment [8], 52.3 µM; in experiment [9] it was 30.4 µM; in experiment [10], 31.9 µM.
With `COc1cnnc2c(C)c(-c3ccccc3)nn12`, the concentration for total growth inhibition (TGI) in experiment [1], in experiment [2], in [3], in [4], in experiment [5] and in [6] was more than 100 µM in each case. Moreover, the total growth inhibition concentration (TGI) in [7], in experiment [8], in experiment [9] and in experiment [10] was more than 100 µM each time.
On to `O=C1OC(C(O)C(O)C(O)CO)C(O)C1O` (stereo not given), for which the concentration for total growth inhibition (TGI) in [1], in experiment [2], in [3], in experiment [4], in [5] and in experiment [6] was more than 100 µM in each case. In addition, the TGI in experiment [7], in experiment [8], in [9] and in experiment [10] was more than 100 µM throughout.
Consider `CC(C)(C)OC(=O)NCCNC(=O)CN(CC(=O)O)C1CCCCC1N(CC(=O)O)CC(=O)O` (stereo not given), for which the TGI in experiment [1], in experiment [2], in [3], in experiment [4], in experiment [5] and in experiment [6] was more than 100 µM throughout. Further, the TGI in experiment [7], in experiment [8], in experiment [9] and in [10] was more than 100 µM throughout.
As to `COC1CCC(n2c([C@@H]3CCCC(=O)N3c3ccc(F)c(F)c3)nc3cc(-c4c(C)noc4C)ccc32)CC1` (stereo not given in full), the GI50 in [1] is 5.99 µM; in experiment [2], 10.3 µM; in experiment [3], 4.66 µM; in experiment [4] it was 4.46 µM; in [5] it was 2.1 µM; in [6] it was 13.5 µM. The GI50 in experiment [7] was 4.82 µM; in experiment [8], 14.6 µM; in experiment [9], 5.81 µM; in experiment [10], 4.09 µM. Also, the TGI in experiment [1] was 20 µM; in experiment [2], 27.2 µM; in experiment [3] it was 57.7 µM; in experiment [4], more than 100 µM; in experiment [5], 9.86 µM; in experiment [6], 30 µM. The TGI in experiment [7] was 17.7 µM; in experiment [8], 56.4 µM; in [9], 18.6 µM; in experiment [10] it was 18.8 µM.
Take `CCOC(=O)c1ccc(NC(NC(=O)CC)(C(F)(F)F)C(F)(F)F)cc1`: the TGI in [1], in experiment [2], in [3], in experiment [4], in experiment [5] and in experiment [6] was more than 100 µM each time. In addition, the concentration for total growth inhibition (TGI) in experiment [7], in experiment [8], in experiment [9] and in [10] was more than 100 µM in each case.
Consider `CC(C)C(/C=C/c1ccccc1)=N\NC(=S)NN`, for which the TGI in [1] was more than 100 µM; in experiment [2], more than 100 µM; in experiment [3] it was more than 89.9 µM; in [4], more than 100 µM; in experiment [5] it was more than 100 µM; in experiment [6] it was more than 100 µM. For the same compound, the TGI in [7], in experiment [8], in experiment [9] and in [10] was more than 100 µM throughout.
`Cc1ccc(Nc2nc(NS(=O)(=O)c3cc(C)c(Cl)cc3S)n[nH]2)cc1`: the TGI in experiment [1], in [2], in [3], in experiment [4], in experiment [5] and in [6] was more than 100 µM in each case. Moreover, the TGI in experiment [7], in experiment [8], in experiment [9] and in [10] was more than 100 µM throughout.
As for `Cc1ccnc2sc3ccccc3c(=O)c12`, the TGI is more than 100 µM in [1]; more than 100 µM in [2]; more than 100 µM in [3]; more than 100 µM in [4]; 77.6 µM in [5]; more than 100 µM in [6]. The concentration for total growth inhibition (TGI) in experiment [7] is more than 100 µM; in [8] it was more than 100 µM; in experiment [9] it was 73.4 µM; in experiment [10] it was more than 100 µM.
For the compound `Cc1cnc2[nH]c(-c3cccc(Cl)c3)cc(=O)c2c1`, the TGI is more than 100 µM in experiment [1]; more than 100 µM in [2]; more than 100 µM in experiment [3]; 3.45 µM in experiment [4]; 20.5 µM in experiment [5]; more than 100 µM in [6]. Further, the TGI in experiment [7] is 85.5 µM; in experiment [8], 34.5 µM; in [9] it was 16 µM; in [10], more than 100 µM.
Take `O=[N+]([O-])c1cc(Cl)ccc1S(=O)(=O)c1cc(Cl)cc2c1NCCC2`: the TGI in [1], in [2], in experiment [3], in experiment [4], in experiment [5] and in [6] was more than 100 µM each time. The concentration for total growth inhibition (TGI) in experiment [7] was more than 100 µM; in [8], more than 100 µM; in [9], 43.7 µM; in experiment [10], more than 100 µM.
As to `CN(C)/C=N/S(=O)(=O)c1nn2c(C=O)c(-c3cc4ccccc4oc3=O)nc2s1`, the concentration for total growth inhibition (TGI) is 55.3 µM in [1]; 33.1 µM in experiment [2]; 7.33 µM in experiment [3]; more than 59.2 µM in experiment [4]; more than 27 µM in [5]; more than 100 µM in experiment [6]. Further, the total growth inhibition concentration (TGI) in experiment [7] was 9.97 µM; in experiment [8], more than 44.9 µM; in [9], 12 µM; in [10], more than 100 µM.
With `Cc1ccc(CC(=O)Nc2ccc(NC(=O)CNC(=O)/C=C/c3ccc(-c4ccccc4)cc3)cc2C(=O)c2ccccc2)cc1`, the TGI in experiment [1] was determined as 8.73 µM; in [2], 24 µM; in [3] it was 17.1 µM; in [4] it was 6.95 µM; in experiment [5] it was 21.1 µM; in [6], 29.8 µM. The total growth inhibition concentration (TGI) in [7] came out at 6.6 µM; in experiment [8], 7.51 µM; in [9], 6.32 µM; in experiment [10], 27.4 µM.
On to `COc1cc(C2c3cc4c(cc3OC(N3CCOCC3)C2C)OCO4)cc(OC)c1OC(C)=O` (stereo not given), for which the TGI in [1] was 81.3 µM; in [2], more than 100 µM; in experiment [3] it was more than 100 µM; in experiment [4], more than 95.5 µM; in experiment [5] it was 25.7 µM; in [6], 30.8 µM. Moreover, the TGI in [7] was more than 62.1 µM; in [8], more than 100 µM; in experiment [9], more than 51 µM; in experiment [10], more than 100 µM.
Regarding `O=[N+]([O-])c1ccc(-[n+]2ccc3ccccc3c2)c([N+](=O)[O-])c1`, the TGI was found to be 28 µM in experiment [1]; 13.5 µM in experiment [2]; 5.38 µM in experiment [3]; 20 µM in experiment [4]; 49.6 µM in experiment [5]; 11.9 µM in [6]. Moreover, the concentration for total growth inhibition (TGI) turned out to be 3.83 µM in [7], 11.9 µM in experiment [8], 6.56 µM in [9] and 27.1 µM in experiment [10].
Consider `O=C(O)C(CO)NC(=O)C1C(C(=O)O)C(c2ccccc2[N+](=O)[O-])C=C(c2ccco2)N1c1ccncc1` (stereo not given), for which the TGI in [1] is 24.8 µM; in [2] it was 22.8 µM; in experiment [3], 5.32 µM; in experiment [4], 25.2 µM; in experiment [5], 57.5 µM; in experiment [6] it was 59 µM. Besides, the TGI was found to be 3.12 µM in [7], 30.5 µM in experiment [8], 10.2 µM in experiment [9] and 29.4 µM in experiment [10].

In general, TGI refers to the concentration giving total growth inhibition. Lower therefore signals more potent growth arrest. By GI50 is commonly meant the concentration that inhibits growth by half.
